# ChEMBL document CHEMBL5543174, “A Nonbactericidal Anionic Antimicrobial Peptide Provides Prophylactic and Therapeutic Efficacies against Bacterial Infections in Mice by Immunomodulatory-Antithrombotic Duality” (J Med Chem, 2024)
# Calls of active or inactive are those of the source. No cut-off for these calls is given here.
# Columns and labels:
# [1] = tested on: Staphylococcus aureus; test: Antimicrobial activity against Staphylococcus aureus ATCC 25923 assessed as reduction in microbial colony forming unit at 2 times MIC incubated for 1 to 4 hrs by time-kill kinetics based analysis; assay type: functional, organism-based; details: time 1-4 hrs
# [2] = tested on: Escherichia coli; test: Antimicrobial activity against Carbapenem-resistant Escherichia coli assessed as reduction in microbial colony forming unit at 2 times MIC incubated for 1 to 4 hrs by time-kill kinetics based analysis; assay type: functional, organism-based; details: time 1-4 hrs
# [3] = tested on: Escherichia coli; test: Antimicrobial activity against Escherichia coli ATCC 25922 assessed as reduction in microbial colony forming unit at 2 times MIC incubated for 1 to 4 hrs by time-kill kinetics based analysis; assay type: functional, organism-based; details: time 1-4 hrs
# [4] = tested on: Staphylococcus aureus; test: Antimicrobial activity against Staphylococcus aureus ATCC 25923 assessed as reduction in metabolic activity at 2 times MIC incubated for 1 to 4 hrs by CCK-8 assay; assay type: functional, organism-based; details: time 1-4 hrs
# [5] = tested on: Escherichia coli; test: Antimicrobial activity against Escherichia coli ATCC 25922 assessed as reduction in metabolic activity at 2 times MIC incubated for 1 to 4 hrs by CCK-8 assay; assay type: functional, organism-based; details: time 1-4 hrs
# [6] = tested on: Staphylococcus aureus; test: Antimicrobial activity against Methicillin-resistant Staphylococcus aureus assessed as reduction in metabolic activity at 2 times MIC incubated for 1 to 4 hrs by CCK-8 assay; assay type: functional, organism-based; details: time 1-4 hrs
# [7] = tested on: Candida albicans; test: Antimicrobial activity against Candida albicans ATCC 2002 assessed as reduction in metabolic activity at 2 times MIC incubated for 1 to 4 hrs by CCK-8 assay; assay type: functional, organism-based; details: time 1-4 hrs
# [8] = tested on: Candida albicans; test: Antimicrobial activity against Candida albicans ATCC 2002 assessed as reduction in microbial colony forming unit at 2 times MIC incubated for 1 to 4 hrs by time-kill kinetics based analysis; assay type: functional, organism-based; details: time 1-4 hrs
# [9] = tested on: Staphylococcus aureus; test: Antimicrobial activity against Methicillin-resistant Staphylococcus aureus assessed as reduction in microbial colony forming unit at 2 times MIC incubated for 1 to 4 hrs by time-kill kinetics based analysis; assay type: functional, organism-based; details: time 1-4 hrs
# [10] = tested on: Escherichia coli; test: Antimicrobial activity against Carbapenem-resistant Escherichia coli assessed as reduction in metabolic activity at 2 times MIC incubated for 1 to 4 hrs by CCK-8 assay; assay type: functional, organism-based; details: time 1-4 hrs
# [11] = Acute toxicity in C57BL/6 mouse assessed as change in creatinine level in serum at 10 mg/kg,ip administration measured after 24 hrs; assay type: organism-based; details: in vivo
# [12] = Acute toxicity in C57BL/6 mouse assessed as change in ALT level in serum at 10 mg/kg,ip administration measured after 24 hrs; assay type: organism-based; details: in vivo
# [13] = tested on: Neutrophil; test: Cytotoxicity against mouse bone marrow derived neutrophil at <= 200 ug/ml incubated for 24 hrs by CCK-8 assay; assay type: toxicity, cell-based; details: dose < 200 µg/ml
# [14] = Acute toxicity in C57BL/6 mouse assessed as change in creatinine level in serum at 30 mg/kg,ip administration measured after 24 hrs; assay type: organism-based; details: in vivo
# [15] = tested on: Erythrocyte; test: Hemolytic activity in rabbit erythrocytes at 25 to 200 ug/ml incubated for 30 mins by absorbance based analysis; assay type: toxicity, cell-based, Oryctolagus cuniculus; details: 0.5 h, dose 25-200 µg/ml
# [16] = tested on: Erythrocyte; test: Hemolytic activity in mouse erythrocytes at 25 to 200 ug/ml incubated for 30 mins by absorbance based analysis; assay type: toxicity, cell-based; details: 0.5 h, dose 25-200 µg/ml
# [17] = tested on: Peritoneal macrophage; test: Cytotoxicity against mouse Peritoneal macrophage at <= 200 ug/ml incubated for 24 hrs by CCK-8 assay; assay type: toxicity, cell-based; details: dose < 200 µg/ml
# [18] = Acute toxicity in C57BL/6 mouse assessed as change in ALT level in serum at 30 mg/kg,ip administration measured after 24 hrs; assay type: organism-based; details: in vivo
# [19] = tested on: Peritoneal macrophage; test: Induction of phagocytosis in mouse Peritoneal macrophage cultured with Carbapenem-resistant Escherichia coli assessed as number of surviving engulfed bacteria at 25 ug/ml incubated for 1.5 hrs followed by bacterial exposure for 1 hr by plate counting method; assay type: functional; details: dose 25 µg/ml; time 2.5 hrs
# [20] = tested on: Peritoneal macrophage cell; test: Induction of phagocytosis in mouse Peritoneal macrophage cultured with Methicillin-resistant Staphylococcus aureus assessed as number of surviving engulfed bacteria at 50 ug/ml incubated for 1.5 hrs followed by bacterial exposure for 1 hr by plate counting method; assay type: functional; details: dose 50 µg/ml; time 2.5 hrs
# [21] = tested on: Peritoneal macrophage; test: Induction of chemotaxis in mouse Peritoneal macrophage assessed as upregulation of CXCL2 production at 100 ug/ml preincubated with PTX followed by compound addition by ELISA; assay type: functional; details: dose 100 µg/ml
# [22] = tested on: Peritoneal macrophage; test: Induction of chemotaxis in mouse Peritoneal macrophage assessed as upregulation of MCP-1 production at 100 ug/ml preincubated with PTX followed by compound addition by ELISA; assay type: functional; details: dose 100 µg/ml
# [23] = tested on: Peritoneal macrophage cell; test: Induction of phagocytosis in mouse Peritoneal macrophage cultured with Methicillin-resistant Staphylococcus aureus assessed as number of surviving engulfed bacteria at 100 ug/ml incubated for 1.5 hrs followed by bacterial exposure for 1 hr by plate counting method; assay type: functional; details: dose 100 µg/ml; time 2.5 hrs
# [24] = tested on: Platelet; test: Anti-platelet aggregation activity in human Platelet rich plasma assessed as inhibition of ADP-induced aggregation at 100 ug/ml preincubated with compound for 5 mins followed by ADP addition by platelet aggregometry relative to control; assay type: functional; set-up: scale not given: the % may be the effect or the level left; details: dose 100 µg/ml
# [25] = tested on: Mus musculus; test: Antithrombotic activity in FeCl3-induced carotid arterial thrombosis C57BL/6 mouse model assessed as increase in blood flow by measuring time to occlusion at 10 mg/kg,SC administration observed for 30 mins by laser speckle perfusion imaging analysis; assay type: functional; details: 0.5 h
# [26] = tested on: Peritoneal macrophage cell; test: Induction of phagocytosis in mouse Peritoneal macrophage cultured with Carbapenem-resistant Escherichia coli assessed as number of surviving engulfed bacteria at 100 ug/ml incubated for 1.5 hrs followed by bacterial exposure for 1 hr by plate counting method; assay type: functional; details: dose 100 µg/ml; time 2.5 hrs
# [27] = tested on: Peritoneal macrophage cell; test: Induction of phagocytosis in mouse Peritoneal macrophage cultured with Methicillin-resistant Staphylococcus aureus assessed as number of surviving engulfed bacteria at 25 ug/ml incubated for 1.5 hrs followed by bacterial exposure for 1 hr by plate counting method; assay type: functional; details: dose 25 µg/ml; time 2.5 hrs
# [28] = tested on: Platelet; test: Anti-platelet aggregation activity in human Platelet rich plasma assessed as inhibition of collagen-induced aggregation at 100 ug/ml preincubated with compound for 5 mins followed by collagen addition by platelet aggregometry relative to control; assay type: functional; set-up: scale not given: the % may be the effect or the level left; details: dose 100 µg/ml
# [29] = tested on: Peritoneal macrophage cell; test: Induction of chemotaxis in mouse Peritoneal macrophage assessed as upregulation of CXCL1 production at 100 ug/ml preincubated with PTX followed by compound addition by ELISA; assay type: functional; details: dose 100 µg/ml
# [30] = tested on: Peritoneal macrophage cell; test: Induction of phagocytosis in mouse Peritoneal macrophage cultured with Carbapenem-resistant Escherichia coli assessed as number of surviving engulfed bacteria at 50 ug/ml incubated for 1.5 hrs followed by bacterial exposure for 1 hr by plate counting method; assay type: functional; details: dose 50 µg/ml; time 2.5 hrs
# [31] = tested on: Platelet; test: Anti-platelet aggregation activity in human Platelet rich plasma assessed as inhibition of PMA-induced aggregation at 100 ug/ml preincubated with compound for 5 mins followed by PMA addition by platelet aggregometry relative to control; assay type: functional; set-up: scale not given: the % may be the effect or the level left; details: dose 100 µg/ml
structure (smiles),measurement,setting,value
CC[C@H](C)[C@H](NC(=O)[C@H](CCCCN)NC(=O)[C@H](CCC(=O)O)NC(=O)[C@H](CCCCN)NC(=O)[C@H](CO)NC(=O)[C@H](CCCCN)NC(=O)[C@H](CCCNC(=N)N)NC(=O)[C@H](Cc1ccccc1)NC(=O)[C@H](Cc1ccccc1)NC(=O)[C@H](CC(=O)O)NC(=O)CNC(=O)[C@H](CC(C)C)NC(=O)[C@@H](N)CC(C)C)C(=O)NCC(=O)N[C@@H](CCCCN)C(=O)N[C@@H](CCC(=O)O)C(=O)N[C@@H](Cc1ccccc1)C(=O)N[C@@H](CCCCN)C(=O)N[C@@H](CCCNC(=N)N)C(=O)N[C@H](C(=O)N[C@H](C(=O)N[C@@H](CCC(N)=O)C(=O)N[C@@H](CCCNC(=N)N)C(=O)N[C@H](C(=O)N[C@@H](CCCCN)C(=O)N[C@@H](CC(=O)O)C(=O)N[C@@H](Cc1ccccc1)C(=O)N[C@@H](CC(C)C)C(=O)N[C@@H](CCCNC(=N)N)C(=O)N[C@@H](CC(N)=O)C(=O)N[C@@H](CC(C)C)C(=O)N[C@H](C(=O)N1CCC[C@H]1C(=O)N[C@@H](CCCNC(=N)N)C(=O)N[C@H](C(=O)N[C@@H](CCC(=O)O)C(=O)N[C@@H](CO)C(=O)O)[C@@H](C)O)C(C)C)[C@@H](C)CC)C(C)C)[C@@H](C)CC,Activity,[1],Active
same,Activity,[2],Active
same,Activity,[3],Active
same,Activity,[4],Active
same,Activity,[5],Active
same,Activity,[6],Active
same,Activity,[7],Active
same,Activity,[8],Active
same,Activity,[9],Active
same,Activity,[10],Active
CC[C@H](C)[C@H](NC(=O)[C@@H]1CSSC[C@H](NC(=O)[C@H](CCC(=O)O)NC(=O)[C@@H](NC(=O)[C@H](CCCCN)NC(=O)[C@H](Cc2c[nH]cn2)NC(=O)[C@@H](NC(=O)[C@H](CCCCN)NC(=O)[C@H](CCC(=O)O)NC(=O)[C@H](C)NC(=O)[C@H](CCC(=O)O)NC(=O)[C@H](CCC(=O)O)NC(=O)[C@H](CCC(=O)O)NC(=O)[C@H](C)N)[C@@H](C)O)[C@@H](C)O)C(=O)N[C@@H](CC(C)C)C(=O)N[C@@H](CCC(=O)O)C(=O)N1)C(=O)N[C@@H](Cc1ccccc1)C(=O)N[C@H](C(=O)N[C@@H](CC(C)C)C(=O)N[C@@H](CC(C)C)C(=O)N1CCC[C@H]1C(=O)N1CCC[C@H]1C(=O)N[C@@H](C)C(=O)O)[C@@H](C)O [listing 1 of 2 here],Activity,[11],Non-Toxic
same,Activity,[12],Non-Toxic
same,Activity,[13],Non-Toxic
same,Activity,[14],Non-Toxic
same,Activity,[15],Non-Toxic
same,Activity,[16],Non-Toxic
same,Activity,[17],Non-Toxic
same,Activity,[18],Non-Toxic
CC[C@H](C)[C@H](NC(=O)[C@@H]1CSSC[C@H](NC(=O)[C@H](CCC(=O)O)NC(=O)[C@@H](NC(=O)[C@H](CCCCN)NC(=O)[C@H](Cc2c[nH]cn2)NC(=O)[C@@H](NC(=O)[C@H](CCCCN)NC(=O)[C@H](CCC(=O)O)NC(=O)[C@H](C)NC(=O)[C@H](CCC(=O)O)NC(=O)[C@H](CCC(=O)O)NC(=O)[C@H](CCC(=O)O)NC(=O)[C@H](C)N)[C@@H](C)O)[C@@H](C)O)C(=O)N[C@@H](CC(C)C)C(=O)N[C@@H](CCC(=O)O)C(=O)N1)C(=O)N[C@@H](Cc1ccccc1)C(=O)N[C@H](C(=O)N[C@@H](CC(C)C)C(=O)N[C@@H](CC(C)C)C(=O)N1CCC[C@H]1C(=O)N1CCC[C@H]1C(=O)N[C@@H](C)C(=O)O)[C@@H](C)O [listing 2 of 2 here],Activity,[19],279
same,Activity,[20],532
same,Activity,[21],63.2%
same,Activity,[22],52.8%
same,Activity,[23],244
same,Activity,[24],54.2%
same,Time,[25],28.5 min
same,Activity,[26],234
same,Activity,[27],793
same,Activity,[28],57.72%
same,Activity,[29],56.8%
same,Activity,[30],245
same,Activity,[31],78.01%
C[C@@H](O)[C@H]1C(=O)N2C(C(=O)O)=C(S[C@@H]3CN[C@H](C(=O)N(C)C)C3)[C@H](C)[C@H]12,Activity,[1],Active
same,Activity,[2],Active
same,Activity,[3],Active
same,Activity,[4],Active
same,Activity,[5],Active
same,Activity,[6],Active
same,Activity,[7],Active
same,Activity,[8],Active
same,Activity,[9],Active
same,Activity,[10],Active
